Results taken from the NIST ThermoML archive (doi:10.1016/j.tca.2018.10.003).
± gives the expanded uncertainty stated by the source.

Conditions: Crystal; DSC

Triple point temperature: 377.75 ± 4.1 K
SMILES: O=C(OOC(=O)c1ccccc1)c1ccccc1 [benzoyl peroxide]
